# How the values were obtained:
# Format in all cases: functional
# [1] = tested on: Pseudomonas aeruginosa; experiment: Antimicrobial activity against Pseudomonas aeruginosa isolate 22843 expressing VIM-2 beta lactamase gene by Etest
# [2] = tested on: Pseudomonas aeruginosa; experiment: Antimicrobial activity against Pseudomonas aeruginosa isolate 27135 expressing VIM-2 beta lactamase gene by Etest
# [3] = tested on: Pseudomonas aeruginosa; experiment: Antimicrobial activity against Pseudomonas aeruginosa isolate M136074 expressing IMP-22 beta lactamase gene by Etest
# [4] = tested on: Pseudomonas aeruginosa; experiment: Antimicrobial activity against Pseudomonas aeruginosa isolate 26285 expressing IMP-13 beta lactamase gene by Etest
# [5] = tested on: Pseudomonas aeruginosa; experiment: Antimicrobial activity against Pseudomonas aeruginosa isolate 27135 expressing VIM-2 beta lactamase gene by Etest in presence of clavulanate
# [6] = tested on: Pseudomonas aeruginosa; experiment: Antimicrobial activity against Pseudomonas aeruginosa isolate 26285 expressing IMP-13 beta lactamase gene by Etest in presence of clavulanate
# [7] = tested on: Pseudomonas aeruginosa; experiment: Antimicrobial activity against Pseudomonas aeruginosa isolate 22843 expressing VIM-2 beta lactamase gene by Etest in presence of clavulanate
# [8] = tested on: Pseudomonas aeruginosa; experiment: Antimicrobial activity against Pseudomonas aeruginosa isolate M136074 expressing IMP-22 beta lactamase gene by Etest in presence of clavulanate
# [9] = tested on: Pseudomonas aeruginosa; experiment: Antimicrobial activity against Pseudomonas aeruginosa isolate M136074 expressing IMP-22 beta lactamase gene by Etest in presence of Tazobactam
# [10] = tested on: Pseudomonas aeruginosa; experiment: Antimicrobial activity against Pseudomonas aeruginosa isolate 22843 expressing VIM-2 beta lactamase gene by Etest in presence of Tazobactam
# [11] = tested on: Pseudomonas aeruginosa; experiment: Antimicrobial activity against Pseudomonas aeruginosa isolate 26285 expressing IMP-13 beta lactamase gene by Etest in presence of Tazobactam
# [12] = tested on: Pseudomonas aeruginosa; experiment: Antimicrobial activity against Pseudomonas aeruginosa isolate 27135 expressing VIM-2 beta lactamase gene by Etest in presence of Tazobactam
Compound,MIC [1] [µg/mL],MIC [2] [µg/mL],MIC [3] [µg/mL],MIC [4] [µg/mL],MIC [5] [µg/mL],MIC [6] [µg/mL],MIC [7] [µg/mL],MIC [8] [µg/mL],MIC [9] [µg/mL],MIC [10] [µg/mL],MIC [11] [µg/mL],MIC [12] [µg/mL]
CO/N=C(\C(=O)N[C@@H]1C(=O)N2C(C(=O)O)=C(COC(C)=O)CS[C@H]12)c1csc(N)n1 [CEFOTAXIME],> 256,> 256,> 256,> 256,–,–,–,–,–,–,–,–
O=C(O)c1cn(C2CC2)c2cc(N3CCNCC3)c(F)cc2c1=O [CIPROFLOXACIN],> 32,> 32,32,> 32,–,–,–,–,–,–,–,–
NCC[C@H](O)C(=O)N[C@@H]1C[C@H](N)[C@@H](O[C@H]2O[C@H](CN)[C@@H](O)[C@H](O)[C@H]2O)[C@H](O)[C@H]1O[C@H]1O[C@H](CO)[C@@H](O)[C@H](N)[C@H]1O [AMIKACIN],> 256,> 256,6,24,–,–,–,–,–,–,–,–
NC[C@H]1O[C@H](O[C@H]2[C@H](O)[C@@H](O[C@H]3O[C@H](CO)[C@@H](O)[C@H](N)[C@H]3O)[C@H](N)C[C@@H]2N)[C@H](N)C[C@@H]1O [TOBRAMYCIN],> 256,> 256,2,128,–,–,–,–,–,–,–,–
CO/N=C(\C(=O)N[C@@H]1C(=O)N2C(C(=O)[O-])=C(C[N+]3(C)CCCC3)CS[C@H]12)c1csc(N)n1 [CEFEPIME],–,24,128,128,–,–,–,–,–,–,–,–
C[C@@H](O)[C@H]1C(=O)N2C(C(=O)O)=C(S[C@@H]3CN[C@H](C(=O)N(C)C)C3)[C@H](C)[C@H]12 [MEROPENEM],> 32,> 32,24,> 32,–,–,–,–,–,–,–,–
CC(C)(O/N=C(\C(=O)N[C@@H]1C(=O)N2C(C(=O)[O-])=C(C[n+]3ccccc3)CS[C@H]12)c1csc(N)n1)C(=O)O [CEFTAZIDIME],12,12,> 256,> 256,–,–,–,–,–,–,–,–
COLISTIN,4,4,6,6,–,–,–,–,–,–,–,–
GENTAMICIN,8,8,4,> 256,–,–,–,–,–,–,–,–
C[C@@H](O)[C@H]1C(=O)N2C(C(=O)O)=C(SCCNC=N)C[C@H]12 [IMIPENEM ANHYDROUS],> 32,> 32,12,> 32,–,–,–,–,–,–,–,–
C[C@H]1[C@H](NC(=O)/C(=N\OC(C)(C)C(=O)O)c2csc(N)n2)C(=O)N1S(=O)(=O)O [AZTREONAM],12,12,4,12,–,–,–,–,–,–,–,–
CC1(C)S[C@@H]2[C@H](NC(=O)[C@H](C(=O)O)c3ccsc3)C(=O)N2[C@H]1C(=O)O [TICARCILLIN],> 256,> 256,> 256,> 256,> 256,> 256,> 256,> 256,–,–,–,–
CCN1CCN(C(=O)N[C@@H](C(=O)N[C@@H]2C(=O)N3[C@@H]2SC(C)(C)[C@@H]3C(=O)O)c2ccccc2)C(=O)C1=O [PIPERACILLIN],32,32,12,16,–,–,–,–,8,32,16,32
